Results on five compounds are retold here after patent US9833465B2 (priority 2013, dated 2017).

Common to all, as to format: cell-based, human
One experiment relates to HCT-116 colon carcinoma. Kind of experiment: cells. To be noted: HCT116 colon cancer cells, 3-6 days, crystal violet, triplicate. As for the experimental part: Compounds were tested in HTC 116 cell line, which is an art-recognized isogenic human disease model predictive of activity in human patients. They were tested according to the following standard protocol:
(§1) Antiproliferative assay: The cytotoxicities of arimetamycins A (1), B (2) and C (3) were evaluated using four human cancer cell lines: HCT-116 colon carcinoma (ATCC; CCL-247) [M. G. Brattain, W. D. Fine, F. M. Khaled, J. Thompson, D. E. Brattain, Cancer Res 1981, 41, 1751-1756], WiDr colorectal adenocarcinoma (ATCC; CCL-218) [P. Noguchi, R. Wallace, J. Johnson, E. M. Earley, S. O'Brien, S. Ferrone, M. A. Pellegrino, J. Milstien, C. Needy, W. Browne, J. Petricciani, In vitro 1979, 15, 401-408], MDR-MB-231 breast adenocarcinoma (ATCC; HTB-26) [B. R. Brinkley, P. T. Beall, L. J. Wible, M. L. Mace, D. S. Turner, R. M. Cailleau, Cancer Res 1980, 40, 3118-3129] and H69AR multidrug resistant lung carcinoma (ATCC; CRL-11351) [S. E. Mirski, J. H. Gerlach, S. P. Cole, Cancer Res 1987, 47, 2594-2598] cell lines. HCT-116 and H69AR cells were grown in McCoy's 5A Modified Medium (Gibco) supplemented with 10% (v/v) FBS and RPMI-1640 (ATCC) supplemented with 20% (v/v) FBS, respectively. WiDr and MDA-MB-231 cells were grown in DMEM Medium (Gibco) supplemented with 10% (v/v) FBS. All the cell lines were incubated at 37° C. with 5% CO2. Cells in log phase growth were harvested by trypsinization. Cells were seeded into 96-well plates (HCT-116: 1,000 cells/well, WiDr: 3,000 cells/well, MDA-MB-231: 8,000 cells/well, H69AR: 25,000 cells/well) and incubated overnight at 37° C. with 5% CO2. Compounds 1-3 (in DMSO) were sequentially diluted (3-fold starting at 50 μg/mL) across a 96-well plate and 100 μL was transferred to the appropriate wells in the assay plates. Doxorubicin (Sigma-Aldrich) and daunorubicin (Sigma-Aldrich) were used as positive controls and DMSO was used as a negative control. The plates were incubated at 37° C. for 3-6 days depending on the growth rate and then evaluated for viability using either an MTT (3-(4,5-Dimethylthiazol-2-yl)-2,5-diphenyltetrazolium bromide) (MDR-MB-231 and H69AR) or crystal violet (HCT-116 and WiDr) based colorimetric assay [R. Supino, Methods in molecular biology 1995, 43, 137-149; bD. Zivadinovic, B. Gametchu, C. S. Watson, Breast Cancer Res 2005, 7, R101-112]. Cell viability is recorded based on the percent stain present in each well relative to no drug DMSO control wells. Assays were run in triplicate.

Experiment [1] relates to H69AR multidrug resistant lung carcinoma. Nature of the experiment: cells. To be noted: multidrug resistant lung cancer cells, 3-6 days, MTT, triplicate, read-out: IC50 H69AR Lung/MDR. The method, then: as §1
Experiment [2] concerns MDA-MB-231 breast adenocarcinoma. Nature of the experiment: cells. To be noted: breast cancer cells, 3-6 days, MTT, triplicate, read-out: IC50 MDSMB231 Breast. As for the experimental part:
as §1

In experiment [3] the test system is WiDr colorectal adenocarcinoma. Nature of the experiment: cells. To be noted: WiDr colon cancer cells, 3-6 days, crystal violet, triplicate. As for the experimental part:
as §1

Experiment [4] deals with representative colon, lung and breast cancer cell lines. Kind of experiment: Anticancer activity against colon, lung and breast cancer cell lines (summary over the panel). The conditions noted are these: for anticancer activity (in words): colon, lung (MDR) and breast cancer cell lines. The method, then:
Arimetamycins A-C (1-3) were evaluated for anticancer activity against representative colon, lung and breast cancer cell lines as described below. The lung cancer line (H69AR) is multidrug resistant (MDR), showing high-level resistance to anthracyclines (50-fold) as well as many other anticancer agents including vincristine, etoposide and mitoxantrone. […] P-glycoprotein expression-dependent MDR is the most clinically significant resistance mechanism affecting the utility of anthracyclines. Compounds of the genus described herein are the first anthracyclines from Streptomyces culture that appear effective against MDR cancers.
as §1

The structures appear in SMILES notation. Where two headings read alike, the source gives them in different places.

For the compound `COc1cc(O)c2c(c1)C(=O)c1cc3c(c(O)c1C2=O)[C@@H](O[C@H]1C[C@](C)(N(C)C)[C@H](O[C@H]2C[C@](C)(O)[C@H](N(C)C)[C@H](C)O2)[C@H](C)O1)[C@H](OC)[C@](C)(O)C3=O` [Arimetamycin A(1), arimetamycin A], the IC50 turned out to be 2.5 nM in the experiment with HCT-116 colon carcinoma, 0.067 µM in experiment [1], 164 nM in experiment [2] and 0.5 nM in experiment [3]. The “IC50 against all cell lines (in words)” value in experiment [4] (all cell lines including the H69AR MDR cell line) is “nanomolar”. Moreover, the “anticancer activity (in words)” value in experiment [4] was “highly active against both MDR and drug sensitive cell lines”. The “IC50 fold lower than doxorubicin or daunorubicin” value in experiment [4] (compared with either doxorubicin or daunorubicin) is 2-10 fold.
For `COc1cc(O)c2c(c1)C(=O)c1cc3c(c(O)c1C2=O)[C@@H](O[C@H]1C[C@H](O)[C@@H](O)[C@H](C)O1)[C@H](OC)[C@](C)(O)C3=O` [Arimetamycin B(2), arimetamycin B], the IC50 with HCT-116 colon carcinoma came to 1800 nM; in experiment [1], 47.1 µM; in experiment [2], 29600 nM; in experiment [3], 7500 nM. Moreover, the “anticancer activity (in words)” value in experiment [4] was “moderate activity”.
Taken in the same sequence, the figures for `COc1cc(O)c2c(c1)C(=O)c1cc3c(c(O)c1C2=O)[C@@H](O[C@H]1C[C@H](OC)[C@@H](O)[C@H](C)O1)[C@H](OC)[C@](C)(O)C3=O` [Arimetamycin C(3), arimetamycin C] were 1400 nM, 18.8 µM, 27700 nM, 5200 nM and “moderate activity”.
`COc1cccc2c1C(=O)c1c(O)c3c(c(O)c1C2=O)C[C@@](O)(C(C)=O)C[C@@H]3O[C@H]1C[C@H](N)[C@H](O)[C@H](C)O1` [Daunorubicin, daunorubicin, reference compound]: the IC50 in the experiment with HCT-116 colon carcinoma was 6.8 nM; in experiment [1], 4.8 µM; in experiment [2], 330 nM; in experiment [3], 5.5 nM.
For `COc1cccc2c1C(=O)c1c(O)c3c(c(O)c1C2=O)C[C@@](O)(C(=O)CO)C[C@@H]3O[C@H]1C[C@H](N)[C@H](O)[C@H](C)O1` [Doxorubicin, doxorubicin, reference compound], the IC50 in the experiment on HCT-116 colon carcinoma (Homo sapiens, HCT-116) came out at 22.5 nM; in experiment [1] (Homo sapiens, H69AR), 18.4 µM; in experiment [2] (Homo sapiens, MDA-MB-231), 970 nM; in experiment [3] (Homo sapiens) it was 30.9 nM.
